Assay [1] relates to NSCLC cells A549, H358, and H322. Description: Time course of cell survival (flow cytometry). The assay is classed as cell-based, human. The protocol:
The time course of cell survival in NSCLC cells A549, H358, and H322 after administration of small molecule compound FN1-8 was analyzed. A549 cells were incubated with 10 μM and 20 μM FN1-8, and H358 and H322 cells were incubated with 15 μM and 30 μM FN1-8, respectively. Then flow cytometry was used to examine the percentage of living and dead cells at different time points. […] In H358 cells, the cell killing effect of FN1-8 is already apparent by 1 day, and in H322 cells by 2 days. (data not shown).

In assay [2] the target is T1, GLI3-TAFbd peptide / TAFII31 protein (Homo sapiens, UniProt Q16594).
T1 construct: The full-length TAFII31 cDNA insert cloned into the (c-myc-tag)pCDNA3.1 expression vector was used as template; made in house; host or cells: cell-free: TNT quick coupled transcription/translation system (Promega)
T1 sequence (Q16594 whole entry): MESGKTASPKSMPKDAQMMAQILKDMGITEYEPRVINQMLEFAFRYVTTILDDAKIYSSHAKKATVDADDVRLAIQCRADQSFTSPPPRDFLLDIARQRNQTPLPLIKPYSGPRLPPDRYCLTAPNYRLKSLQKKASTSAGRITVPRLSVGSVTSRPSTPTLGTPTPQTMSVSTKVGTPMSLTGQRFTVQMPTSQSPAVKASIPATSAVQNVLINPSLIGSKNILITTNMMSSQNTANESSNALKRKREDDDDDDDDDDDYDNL
Description: Co-immunoprecipitation of GLI-TAFbd peptide and TAFII31. The assay is classed as binding. The protocol: (§1) The binding between GLI-TAF binding domain peptides (GLI-TAFbd) and TAFII31 protein was quantified by measuring the intensity of each band of an co-immunoprecipitation experiments with arbitrary unit. The binding after DMSO treatment was set to 100% for each GLI-TAFbd peptide. The binding was interfered by FN1-8 in dose-dependent manner: the binding for GLI1-TAFbd was 73.6% and 33.5%, for GLI2-TAFbd was 73.8% and 60%, for GLI3-TAFbd was 71.6% and 28.6%, after treatment with 20 μM and 50 μM FN1-8, respectively. Details are described in Example 35.
(§2) Specifically for this experiment, biotinylated TAF binding domain of GLI proteins, GLI1, GLI2, and GLI3 (see below) were custom synthesized at Genemed Synthesis, Inc. The GLI-TAF binding domain (GLI-TAFbd) peptide sequences were as follows;
(§3) TAFII31 proteins were prepared by using the TNT quick coupled transcription/translation systems (Promega) according to the manufacturer's protocol. The full-length TAFII31 cDNA insert cloned into the (c-myc-tag)pCDNA3.1 expression vector was used as template in this in vitro translation system. An empty (c-myc-tag)pCDNA3.1 expression vector was used as a control. The biotinylated GLI peptides (i.e., the TAF binding domains of three different GLI proteins) were incubated with the TAFII31 protein in the presence or absence of small molecule compound FN1-8 (at 20 μM and 50 μM). Then the biotinylated GLI-peptide-TAFII31 complexes were precipitated with streptavidine agarose followed by immunoblotting with an anti-c-myc antibody (A-14; Santa Cruz Biotech, Inc.; Cao et al., 2001, Science 293:115-120). […] As a control, there was no pull-down of TAFII31 by all three GLI peptides when the empty (c-myc-tag)pCDNA3.1 expression vector was used in in vitro translation system (FIG. 23).

For assay [3], the target named is T2, GLI2-TAFbd peptide / TAFII31 protein (Homo sapiens, UniProt Q16594).
T2 construct: The full-length TAFII31 cDNA insert cloned into the (c-myc-tag)pCDNA3.1 expression vector was used as template; made in house; host or cells: cell-free: TNT quick coupled transcription/translation system (Promega)
T2 sequence (Q16594 whole entry): as above
The assay is described as above. The class given is binding. The protocol:
as §1, §2, §3

For assay [4], the target named is T3, GLI1-TAFbd peptide / TAFII31 protein (Homo sapiens, UniProt Q16594).
T3 construct: The full-length TAFII31 cDNA insert cloned into the (c-myc-tag)pCDNA3.1 expression vector was used as template; made in house; host or cells: cell-free: TNT quick coupled transcription/translation system (Promega)
T3 sequence (Q16594 whole entry): as above
The description is as above. The class given is binding. The protocol:
as §1, §2, §3

In a further assay the test system is SK-Mel-5 (melanoma). Kind of assay: Apoptosis analysis (Annexin V FITC, flow cytometry). The assay is classed as cell-based, human. The method, then:
(§4) Apoptosis was analyzed by using an Annexin V FITC Apoptosis Detection Kit (Biosource, Camarillo, Calif.), according to the manufacturer's protocol. After treatment with different small molecule compounds at various concentrations for about 3 days, cells were harvested by trypsinization, stained and immediately analyzed by flow cytometry (FACScan; Decton Dickinson, Franklin Lake, N.J.). Early apoptotic cells with exposed phosphatidylserine but intact cell membranes will bind to Annexin V-FITC, but not propidium iodide (PI). Cells in necrotic or late apoptotic stages will be labeled with both Annexin V-FITC and PI. “% apoptotic cells” or “% apoptosis” refers to the combined early and late apoptotic cells.
(§5) Dose titration experiments of small molecule compound FN1-8 was performed using the melanoma cell lines A375, G361, SK-Mel-2, SK-Mel-5, and SK-Mel-28. A 375 cells were plated in 6-well plates and incubated with DM SO (control) or 2 μM, 5 μM, 10 μM, 20 μM, and 40 μM of FN1-8, respectively, for 3 days. A dramatic and dose-dependent cell killing in this cell line was observed when FN1-8 was added at 10 μM or more (data not shown). […] After 4 days of incubation with 20 μM FN1-8, approximately 20% of the Malme-3M cells, 28% of SK-Mel-2 cells, 36% of SK-Mel-5 cells, 41% of A375 cells, and 17% of G361 cells underwent apoptosis, while less than 3% of normal skin fibroblast cells underwent apoptosis under the same conditions (Table 3).

The subject of assay [5] is Malme-3 (normal skin cells). The assay is described as above. The class given is cell-based, human. As to conditions: 10 μM. The method, then:
as §4, §5

Another assay concerns G361 (melanoma). The description is as above. The class given is cell-based, human. The method, then:
as §4, §5

The next assay relates to SK-Mel-2 (melanoma). The description is as above. The assay is classed as cell-based, human. The method, then:
as §4, §5

A further assay relates to Malme-3M (melanoma). The assay is described as above. The class given is cell-based, human. The following applies: 10 μM. The protocol:
as §4, §5

A further assay relates to A375 (melanoma). The assay is described as above. The class given is cell-based, human. The method, then: as §4, §5
In the next assay the test system is SK-Mel-28 (melanoma). The assay is described as above. The class given is cell-based, human. The protocol:
as §4, §5

Assay [6] deals with melanoma cell lines A375, G361, SK-Mel-2, SK-Mel-5, and SK-Mel-28. Description: Dose titration, cell killing. As to conditions: A375, 2-40 μM tested, 3 days; similar effect in G361, SK-Mel-2, SK-Mel-5, SK-Mel-28. The assay is classed as cell-based, human. The protocol:
Typically, the small molecule compounds of the present invention were dissolved in DMSO at a concentration of 30 mM. The small molecule compounds were then tested under cell culture conditions at different concentrations ranging from 0, 10, 30, 50, to 100 uM. To determine cell survival after treatment, the cells were incubated with the small molecule compounds in 6-well plates for about 3 days. After removal of the cell culture medium, 1-ml of 0.5% crystal violet solution (prepared in 20% ethanol and 20% methanol) was added to stain the cells for 5 min. Then the crystal violet solution was rinsed clean with tap water. Cell survival was estimated based on the density of crystal stained plates.
Dose titration experiments of small molecule compound FN1-8 was performed using the melanoma cell lines A375, G361, SK-Mel-2, SK-Mel-5, and SK-Mel-28. A 375 cells were plated in 6-well plates and incubated with DM SO (control) or 2 μM, 5 μM, 10 μM, 20 μM, and 40 μM of FN1-8, respectively, for 3 days. A dramatic and dose-dependent cell killing in this cell line was observed when FN1-8 was added at 10 μM or more (data not shown). […]

The structures appear in SMILES notation. Where only a bound is given, the exact number is not on record here.

For `O=C(NCCc1ccc(O)cc1)C1C(c2ccccc2)=NN(c2ccccc2)C1c1ccccc1` (stereo not shown) [FN1-8, N-(2-(4-Hydroxyphenyl)ethyl)-1,3,5-triphenyl-4,5-dihydro-pyrazole-4-carboxyamide], the “time after which dose-dependent cell killing effect is shown” value in assay [1] (A549, 10 μM and 20 μM) was found to be 3 days. In addition, the “time by which cell killing effect is apparent” value is not above 2 days in [1] (H322, 15 μM and 30 μM); not above 1 days in assay [1] (H358, 15 μM and 30 μM). Besides, the “binding of GLI3-TAFbd to TAFII31 (DMSO = 100%)” value in assay [2] (20 μM) is reported as 71.6%; in assay [2] (50 μM) it was 28.6%. Further, the “binding of GLI2-TAFbd to TAFII31 (DMSO = 100%)” value in [3] (20 μM) amounted to 73.8%; in assay [3] (50 μM), 60%. Also, the results for the “binding of GLI1-TAFbd to TAFII31 (DMSO = 100%)” value in assay [4] (20 μM) and in assay [4] (50 μM) were 73.6% and 33.5%, respectively. The “% of apoptotic cells” value was 7.9% in the assay on SK-Mel-5 (melanoma) (SK-Mel-5, 10 μM); 34.9% with SK-Mel-5 (melanoma) (SK-Mel-5, 20 μM, 4 days of incubation); 2.1% in assay [5]; 7.5% in the assay on G361 (melanoma) (G361, 10 μM); 15.5% in the assay with G361 (melanoma) (G361, 20 μM, 4 days of incubation); 9% with SK-Mel-2 (melanoma) (SK-Mel-2, 10 μM). In addition, the “% of apoptotic cells” value amounted to 25.3% in the assay on SK-Mel-2 (melanoma) (SK-Mel-2, 20 μM, 4 days of incubation); 10.5% in the assay with Malme-3M (melanoma); 35.8% with A375 (melanoma) (A375, 10 μM); 39.7% in the assay with A375 (melanoma) (A375, 20 μM, 4 days of incubation); 7.7% with SK-Mel-28 (melanoma) (SK-Mel-28, 10 μM); 11.8% with SK-Mel-28 (melanoma) (SK-Mel-28, 20 μM). Moreover, the “concentration at which dramatic and dose-dependent cell killing was observed” value in assay [6] is not below 10 µM.

For the origin of these results see US7714014B2, “Targeting GLI proteins in human cancer by small molecules” (The Regents of the University of California, priority 2005, dated 2010).
